In US20080076183A1, “Polysaccharide-peptide conjugates for use as thrombin substrates” (Dade Behring Marburg GmbH, priority 2006, published 2008):
Non-standard residues stand in square brackets, D forms with d. Residues, ends and D or L forms follow the SMILES beside them. *: point of attachment. pNA = O=[N+]([O-])c1ccc(N*)cc1; βAla = NCCC(=O)O

What was measured:
[1] = target: T1, thrombin (Homo sapiens, UniProt P00734); assay: Kinetic properties of thrombin substrates (Km, Vmax, Kcat, Kcat/Km)
[2] = target: T1, thrombin; assay: Thrombin generation test / determination of the endogenous thrombin potential in defibrinated platelet-poor plasma; type: biochemical; details: for course of substrate conversion curve after termination of thrombin formation and inhibition: extinction at 405 nm; for reaction kinetics / substrate consumption in a thrombin generation test: compared with H-β-Ala-Gly-Arg-pNA and dextran-β-Ala-Gly-Arg-pNA
Experimental: The thrombin generation was started by addition of 30 μl of Innovin® (reagent comprising recombinant human tissue factor and a mixture of synthetic phospholipids; Dade Behring Marburg GmbH, Germany) and 15 μl of CaCl2 [250 mM]. Measurement was started simultaneously. The change in extinction was monitored for at least 20 minutes in a Behring coagulation system BCS® system (Dade Behring Marburg GmbH, Marburg, Germany) at a wavelength of λ=405 nm (see FIG. 2).
For comparison purposes, the determination of the endogenous thrombin potential was carried out in parallel using the uncoupled substrate H-β-Ala-Gly-Arg-pNA. The substrate solution used for this contained 1 mM H-β-Ala-Gly-Arg-pNA (see FIG. 1).

Compound | course of substrate conversion curve after termination of thrombin formation and inhibition ([2]; plasma sample) | reaction kinetics / substrate consumption in a thrombin generation test [2] | further results
N=C(N)NCCC[C@H](NC(=O)CNC(=O)CCN)C(=O)Nc1ccc([N+](=O)[O-])cc1 [H-β-Ala-Gly-Arg-pNA 2AcOH] (H-[βAla]-Gly-Arg-pNA) | changes to a uniform, steady and linear increase, instead of reaching a plateau phase |  | Km ([1]; Michaelis constant, substrate affinity to thrombin): 2200 µM; Vmax ([1]; maximum reaction rate): 16 U; Kcat ([1]; turnover number): 17.4 s⁻¹; cleavage by α2-macroglobulin-bound thrombin ([2]; plasma sample): cleavage of the small molecular weight peptide substrate by α2-macroglobulin-bound thrombin
Dextran-D-CHG-Ala-Arg-pNA |  | substrate consumption rapidly occurs | 
Dextran-D-CHG-Gly-Arg-pNA |  | substrate consumption rapidly occurs | 
Dextran-β-Ala-Gly-Arg-pNA | reaches a plateau phase |  | 
